Measured values published in patent US4868204A, “Mycalamide compounds, compositions thereof and methods of preparation and use” (Harbor Branch Oceanographic Institution, Inc., priority 1988, dated 1989).

What was measured:
[1] = tested on: polio vaccine virus Type I (PVI); assay type: cell-based
[2] = tested on: BSC cells
[3] = tested on: P388 mouse leukemia cell; experiment: in vitro P388 mouse leukemia cell assay; assay type: cell-based; conditions: 50% inhibition of cell replication vs untreated cultures
Protocol: Antitumor effectiveness of the compounds of the invention was evaluated using a standardized in vitro P388 mouse leukemia cell assay protocol disclosed in U.S. Pat. No. 4,731,366 with the antitumor activity being expressed in IC50 (concentration that results in 50% inhibition of cell replication normalized to untreated cultures) determined with a log-log transform of data and expressed as xx ng/ml. As an example, for mycalamide A the P388 assay value was […]

[4] = tested on: HSV; assay type: cell-based, Herpes simplex type 1 virus

## COC(CO)CC1OC2C(NC(=O)C(O)C3(O)CC(C)C(C)C(C)O3)OCOC2C(OC)C1(C)C (stereo not drawn) [Example 26, 4α Dihydro pseudomycalamide B]
[1]
  AV assay, PVI: 4+ and -
[2]
  AV assay, cytotoxicity: -
[3]
  P388 IC50: 0.003 µg/mL
[4]
  AV assay, HSV: 4+ and -

## COC(CO)CC1OC2C(NC(=O)C(O)C3(OC)CC(C)C(C)C(C)O3)OCOC2C(OC)C1(C)C (stereo not drawn) [Example 24, 4β-Dihydro mycalamide B]
[1]
  AV assay, PVI: 4+
[3]
  P388 IC50: 0.00014 µg/mL

## COC1C2OCOC(NC(=O)C(O)C3(OC)CC4(CO4)C(C)C(C)O3)C2OC(CC(O)CO)C1(C)C (stereo not drawn) [Example 4, Mycalamide A 4β-epoxide]
[3]
  P388 IC50: 0.0149 µg/mL
[4]
  AV assay, HSV: 4+

## C=C1CC(OC)(C(O[Si](C)(C)C)C(=O)NC2OCOC3C2OC(CC(CO[Si](C)(C)C)O[Si](C)(C)C)C(C)(C)C3OC)OC(C)C1C (stereo not drawn) [Example 15, Mycalamide A tris-trimethylsilylether]
[1]
  AV assay, PVI: 4+ and -
[2]
  AV assay, cytotoxicity: -
[3]
  P388 IC50: 0.0013 µg/mL
[4]
  AV assay, HSV: 4+ and -

## COC1C2OCOC(NC(=O)C(O)C3(OC)CC(C)C(C)C(C)O3)C2OC(CC(O)CO)C1(C)C (stereo not drawn) [Example 22, 4β-dihydro mycalamide A]
[2]
  AV assay, cytotoxicity: -
[3]
  P388 IC50: 0.8 ng·mL

## COC1C2OCOC(NC(=O)C(O)C3(OC)CC4(CO4)C(C)C(C)O3)C2OC(CC(O)CO)C1(C)C (stereo not drawn) [Example 3, Mycalamide A 4 γ-epoxide]
[3]
  P388 IC50: 0.034 µg/mL

## C=C1CC(OC)(C(O)C(=O)NC2OCOC3C2OC(CC(O)COC(=O)c2ccc(Br)cc2)C(C)(C)C3OC)OC(C)C1C (stereo not drawn) [Example 11, Mycalamide A 18-mono-p-bromobenzoate]
[1]
  AV assay, PVI: 4+ and -
[2]
  AV assay, cytotoxicity: -
[3]
  P388 IC50: 0.00128 µg/mL

## C=C1CC(OC)(C(OC(C)=O)C(=O)NC2OCOC3C2OC(CC(COC(C)=O)OC)C(C)(C)C3OC)OC(C)C1C (stereo not drawn) [Example 9, Mycalamide B Diacetate]
[1]
  AV assay, PVI: 4+ and -
[2]
  AV assay, cytotoxicity: -
[3]
  P388 IC50: 0.0153 µg/mL
[4]
  AV assay, HSV: 4+ and -

## COC1C2OCOC(NC(=O)C(OC(=O)c3ccc(Br)cc3)=C3C=C(C)C(C)C(C)O3)C2OC(CC(O)COC(=O)c2ccc(Br)cc2)C1(C)C (single isomer, unassigned) [Example 13, Neomycalamide A 7,18-di-p-bromobenzoate]
[1]
  AV assay, PVI: 4+ and -
[2]
  AV assay, cytotoxicity: -
[3]
  P388 IC50: 0.5725 µg/mL
[4]
  AV assay, HSV: 4+ and -

## COC1C2OCOC(NC(=O)C(O)C3(O)CC(C)C(C)C(C)O3)C2OC(CC(O)CO)C1(C)C (stereo not drawn) [Example 20, 4α-dihydro pseudomycalamide A]
[3]
  P388 IC50: 0.0105 µg/mL
[4]
  AV assay, HSV: 4+

## C=C1CC(OC)(C(OC(=O)c2ccc(Br)cc2)C(=O)NC2OCOC3C2OC(CC(O)COC(=O)c2ccc(Br)cc2)C(C)(C)C3OC)OC(C)C1C (stereo not drawn) [Example 12, Mycalamide A 7,18-di-p-bromobenzoate]
[1]
  AV assay, PVI: 4+
[3]
  P388 IC50: 0.1412 µg/mL

## C=C1CC(OC)(C(OC(=O)c2ccc(Br)cc2)C(=O)NC2OCOC3C2OC(CC(O)CO)C(C)(C)C3OC)OC(C)C1C (stereo not drawn) [Example 10, Mycalamide A 7-mono-p-bromobenzoate]
[1]
  AV assay, PVI: 4+
[3]
  P388 IC50: 0.0233 µg/mL
[4]
  AV assay, HSV: 4+
